# Measurements from US12435083B2, “Cyclopropyl-(hetero)aryl-substituted ethylsulphonyl-pyridine derivatives” (BOEHRINGER INGELHEIM VETMEDICA GMBH, priority 2021, dated 2025).
# Columns and labels:
# [1] = system: adult Rhipicephalus sanguineus ticks; assay: Contact activity against adult Rhipicephalus sanguineus (coated vial, mortality at 48 h); settings: contact assay; >100 μM = not active at the top concentration; read-out: R. sanguineus contact activity EC50
# In short: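 Compound in acetone/0.02% Triton X-100 coated onto glass vial walls and cap filter paper; after drying, ten adult ticks added per vial. Held at 24° C, 95% relative humidity, 12 h light/dark cycle. Mortality scored visually at 48 hours; EC50 derived from a dose-response series.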
# [2] = system: nymphs of Dermacentor variabilis ticks; assay: Oral rat-tick efficacy against nymphs of Dermacentor variabilis ticks; type: in vivo; settings: rats, oral gavage 10 mg/kg on Day 0, tick count on Day 3
# Experimental: Example 10: Comparison of Oral Rat-Tick Efficacy Data for Selected Specific Compounds of Formula (I) Against Nymphs of Dermacentor variabilis Ticks
# On Day −1, rats were sedated, fitted with an Elizabethan collar, and infested with approximately 35 nymphal stage D. variabilis ticks. On Day 0, each rat was treated via oral gavage with the appropriate formulation of placebo, positive control, or test compound at the appropriate dose. On Day 3, all rats were euthanized, and ticks were removed, counted, and disposed of. In Table 2 efficacy is expressed in % mortality compared to negative controls containing compound vehicle only.
# [3] = system: adult Ctenocephalides felis fleas; assay: Ingestion activity (flea membrane feeding, blood feeding) against adult Ctenocephalides felis; settings: flea membrane feeding (ingestion, blood feeding) assay, EC80
SMILES,EC50 [1] [µM],Observed efficacy (% mortality compared to negative controls) [2] [%],EC80 ([3]; read-out: C. felis membrane feeding (ingestion/blood feeding) activity EC80) [µM],C. felis membrane feeding (ingestion/blood feeding) activity EC80 [3] [µM]
CCS(=O)(=O)c1cc(-c2ccc(C3(F)CC3)cc2)cnc1-c1nc2cc(C(F)(F)C(F)(F)F)nnc2n1C [compound 19],10 to 100,>95,<1,
CCS(=O)(=O)c1cc(-c2ccc(C3CC3)cc2)cnc1-c1nc2cc(C(F)(F)C(F)(F)F)cnc2n1C [compound 44],10 to 100,>95,,1 to 10
